# Source: patent EP0761672A1, “Cephalosporin containing in position 7 a substituted benzyloxyimino radical, processes for their preparation and intermediates for their preparation, their use as medicaments” (ROUSSEL UCLAF, priority 1995, dated 1997)
# Test system: Staphylocoques Pénicilline résistants
# Assay: In vitro activity, dilution method in solid medium (MIC)
# Assay type: cell-based
# Conditions: Staphylocoques Pénicilline résistants (22 souches); geometric mean of all MICs of the strain group; 24 h incubation at 37°C; read-out: concentrations minimales inhibitrices (CMI), moyennes géométriques
# Protocol: (§1) Activité in vitro, méthode des dilutions en milieu solide.
# (§2) On prépare une série de boîtes dans lesquelles on répartit une même quantité de milieu nutritif stérile, contenant des quantités croissantes du produit à étudier puis chaque boîte est ensemencée avec plusieurs souches bactériennes.
# (§3) Après incubation de 24 heures en étuve à 37°C, l'inhibition de la croissance est appréciée par l'absence de tout développement bactérien ce qui permet de déterminer les concentrations minimales inhibitrices (CMI) exprimées en microgrammes/cm^3.
# (§4) Les résultats sont exprimés sous forme de moyennes géométriques de toutes les CMI obtenues, pour un groupe de souches particulier.
row,SMILES,MIC [mg/L]
1,Nc1nc(/C(=N/OCc2cc(Cl)c(O)c(O)c2Cl)C(=O)N[C@@H]2C(=O)N3C(C(=O)[O-])=C(/C=C/C[n+]4cccc5ccccc54)CS[C@H]23)cs1 [Exemple 1],0.78
2,Nc1nc(/C(=N/OCc2cc(Cl)c(O)c(O)c2Cl)C(=O)N[C@@H]2C(=O)N3C(C(=O)[O-])=C(/C=C/C[n+]4ccn5ccccc54)CS[C@H]23)cs1 [Exemple 2],0.91
3,Nc1nc(/C(=N/OCc2cc(Cl)c(O)c(O)c2Cl)C(=O)N[C@@H]2C(=O)N3C(C(=O)[O-])=C(/C=C/C[n+]4cccc5c4CCC5)CS[C@H]23)cs1 [Exemple 3],1.37
4,Nc1nc(/C(=N/OCc2cc(F)c(O)c(O)c2F)C(=O)N[C@@H]2C(=O)N3C(C(=O)[O-])=C(/C=C/C[n+]4cccc5ccccc54)CS[C@H]23)cs1 [Exemple 4],0.37
5,Nc1nc(/C(=N/OCc2cc(F)c(O)c(O)c2F)C(=O)N[C@@H]2C(=O)N3C(C(=O)[O-])=C(/C=C/C[n+]4ccn5ccccc54)CS[C@H]23)cs1 [Exemple 5],0.55
6,Nc1nc(/C(=N/OCc2cc(F)c(O)c(O)c2F)C(=O)N[C@@H]2C(=O)N3C(C(=O)[O-])=C(/C=C/C[n+]4cccc5c4CCC5)CS[C@H]23)cs1 [Exemple 6],0.63
7,Nc1nc(/C(=N/OCc2cc(O)c(O)c(F)c2)C(=O)N[C@@H]2C(=O)N3C(C(=O)[O-])=C(/C=C/C[n+]4cccc5ccccc54)CS[C@H]23)cs1 [Exemple 7],0.3
8,COC(=O)C(O/N=C(\C(=O)N[C@@H]1C(=O)N2C(C(=O)[O-])=C(/C=C/C[n+]3cccc4ccccc43)CS[C@H]12)c1csc(N)n1)c1cc(O)c(O)c(F)c1 (stereo partly drawn) [Exemple 8],0.3

# Test system: Pseudomonas aeruginosa
# Assay: as above
# Assay type: cell-based
# Conditions: Pseudomonas aeruginosa (23 souches); geometric mean of all MICs of the strain group; 24 h incubation at 37°C; read-out: concentrations minimales inhibitrices (CMI), moyennes géométriques
# Protocol: as §1, §2, §3, §4
row,SMILES,MIC [mg/L]
1,Nc1nc(/C(=N/OCc2cc(Cl)c(O)c(O)c2Cl)C(=O)N[C@@H]2C(=O)N3C(C(=O)[O-])=C(/C=C/C[n+]4ccn5ccccc54)CS[C@H]23)cs1 [Exemple 2],0.42
2,Nc1nc(/C(=N/OCc2cc(Cl)c(O)c(O)c2Cl)C(=O)N[C@@H]2C(=O)N3C(C(=O)[O-])=C(/C=C/C[n+]4cccc5c4CCC5)CS[C@H]23)cs1 [Exemple 3],0.26
3,Nc1nc(/C(=N/OCc2cc(F)c(O)c(O)c2F)C(=O)N[C@@H]2C(=O)N3C(C(=O)[O-])=C(/C=C/C[n+]4cccc5ccccc54)CS[C@H]23)cs1 [Exemple 4],0.14
4,Nc1nc(/C(=N/OCc2cc(F)c(O)c(O)c2F)C(=O)N[C@@H]2C(=O)N3C(C(=O)[O-])=C(/C=C/C[n+]4cccc5c4CCC5)CS[C@H]23)cs1 [Exemple 6],1.12
5,Nc1nc(/C(=N/OCc2cc(O)c(O)c(F)c2)C(=O)N[C@@H]2C(=O)N3C(C(=O)[O-])=C(/C=C/C[n+]4cccc5ccccc54)CS[C@H]23)cs1 [Exemple 7],0.47
6,COC(=O)C(O/N=C(\C(=O)N[C@@H]1C(=O)N2C(C(=O)[O-])=C(/C=C/C[n+]3cccc4ccccc43)CS[C@H]12)c1csc(N)n1)c1cc(O)c(O)c(F)c1 (stereo partly drawn) [Exemple 8],0.49

# Test system: Enterobactéries Céfotaxime résistantes
# Assay: as above
# Assay type: cell-based
# Conditions: 24 h, read-out: concentrations minimales inhibitrices (CMI), moyennes géométriques
# Protocol: as §1, §2, §3, §4
row,SMILES,MIC [mg/L]
1,Nc1nc(/C(=N/OCc2cc(Cl)c(O)c(O)c2Cl)C(=O)N[C@@H]2C(=O)N3C(C(=O)[O-])=C(/C=C/C[n+]4cccc5ccccc54)CS[C@H]23)cs1 [Exemple 1],0.11
2,Nc1nc(/C(=N/OCc2cc(Cl)c(O)c(O)c2Cl)C(=O)N[C@@H]2C(=O)N3C(C(=O)[O-])=C(/C=C/C[n+]4ccn5ccccc54)CS[C@H]23)cs1 [Exemple 2],0.19
3,Nc1nc(/C(=N/OCc2cc(Cl)c(O)c(O)c2Cl)C(=O)N[C@@H]2C(=O)N3C(C(=O)[O-])=C(/C=C/C[n+]4cccc5c4CCC5)CS[C@H]23)cs1 [Exemple 3],0.13
4,Nc1nc(/C(=N/OCc2cc(F)c(O)c(O)c2F)C(=O)N[C@@H]2C(=O)N3C(C(=O)[O-])=C(/C=C/C[n+]4cccc5ccccc54)CS[C@H]23)cs1 [Exemple 4],0.38
5,Nc1nc(/C(=N/OCc2cc(F)c(O)c(O)c2F)C(=O)N[C@@H]2C(=O)N3C(C(=O)[O-])=C(/C=C/C[n+]4ccn5ccccc54)CS[C@H]23)cs1 [Exemple 5],0.26
6,Nc1nc(/C(=N/OCc2cc(F)c(O)c(O)c2F)C(=O)N[C@@H]2C(=O)N3C(C(=O)[O-])=C(/C=C/C[n+]4cccc5c4CCC5)CS[C@H]23)cs1 [Exemple 6],0.36
7,Nc1nc(/C(=N/OCc2cc(O)c(O)c(F)c2)C(=O)N[C@@H]2C(=O)N3C(C(=O)[O-])=C(/C=C/C[n+]4cccc5ccccc54)CS[C@H]23)cs1 [Exemple 7],0.2
